One series deals with human myoblasts. Briefly: In vitro selection of MGMT^P140K-2A-GFP gene-targeted myoblasts with BG/BCNU. The series is classed as cell-based. The source says: Consequently, we next verified whether expression from the integrated MGMT^P140K gene, along with the eGFP reporter gene to facilitate tracking of transduced cells, was sufficient to confer myoblasts protection against treatments with BG and BCNU (FIG. 4A). Using IDLV to deliver a MGMT^P140K-eGFP template DNA flanked by CCR5 homology arms, we obtained 40-50% gene addition in myoblasts in the absence of drug selection (FIG. 4B and C). However, to fully evaluate the selection potential of the BG/BCNU combination, we thought it would be more appropriate to work with a population containing a much lower level of gene addition. As such, we generated two populations of gene-targeted myoblasts containing either 3% or 35% of cells expressing the MGMT^P140K-2A-GFP gene using non-transduced cells for dilution. Both populations were exposed to 20 μM BG for one hour followed by increasing doses of BCNU (10, 25, 50 and 100 μM) for two hours (FIG. 4D).
Myoblasts were then allowed to recover for one week after which the proportion of eGFP positive cells was analyzed by flow cytometry, a procedure defined as one cycle of drug selection. […] After three cycles of selection using the same concentration of BCNU, up to 45% of the myoblasts were positive for eGFP, representing a 15-fold enrichment over the initial population. […] In comparison, when starting with a population containing already 35% of gene-targeted myoblasts, over 85% of the cells were expressing eGFP after only one cycle of selection using 50 μM of BCNU (FIG. 4D).
Four weeks post-transduction, gene modified myoblasts containing the MGMT^P140K-2A-GFP cassette inserted at the endogenous CCR5 locus were treated with 50 μM O6BG for two hours followed by increasing doses (range from 10-100 μM) of BCNU for one hour. Cells were then washed with PBS and allowed to proliferate in the presence of […] for seven days before being analyzed by FACS. Where indicated, this procedure was repeated up to two more times. Cells were maintained in the presence of O6BG during their post-treatment expansion to inactivate the endogenous MGMT gene.

In series [1] the test system is CCR5-specific ZFN pair (exon 3) (artificial). As to the kind of experiment: cell_activity. The following applies: Cel-1 assay in human myoblasts; cleavage over 30%.
Setting [2] is: starting population 3%, three cycles, 100 μM BCNU.

With `O=NN(CCCl)C(=O)NCCCl` [BCNU, 1,3-bis(2-chloroethyl)-N-nitrosourea], the “effect of additional cycle of selection” value in the series on human myoblasts (starting population 3%, beyond three cycles) is reported as “did not allow us to further increase the proportion of eGFP positive cells”. Also, the “proportion of MGMT^P140K-2A-GFP expressing cells” value in the series with human myoblasts (starting population 3%, one cycle, 20 μM BG then 100 μM BCNU) was 11%. In the series on human myoblasts (setting [2]), the “enrichment over the initial population” value amounted to 15 fold and the “proportion of myoblasts positive for eGFP” value is listed as “up to 45%”. Besides, the “proportion of cells expressing eGFP” value with human myoblasts (starting population 35%, one cycle, 50 μM BCNU) is reported as “over 85%”.
CCR5 locus exon 3 ZFN target came in with an activity in series [1] above 30%.

The values above are taken from patent US20140140969A1, “METHODS AND COMPOSITIONS FOR MUSCULAR DYSTROPHIES” (Sangamo BioSciences, Inc., priority 2012, published 2014).
